Test results reported in patent US20020004495A1, “Methods for stimulating bone formation” (priority 1998, published 2002).

Columns and labels:
[1] = test system: ROS 17/2.8 rat osteosarcoma cells; assay: Intracellular cAMP in ROS 17/2.8 cells; format: cell-based
Method: (§1) RCT-1 and RCT-3 are clonal cell lines immortalized by SV-40 large T antigen from cells released from fetal rat calvair by a cmbination collagenase/hyaluronidase digestion. RCT-1 cells, derived from cells released during the first 10 minutes of digestion (fraction I), are cultured in RPMI 1640 medium (BRL) with 10% fetal bovine serum and 0.4 mg/ml G418 (BRL). […] RCT-3 cells, immortalized from osteoblast-enriched fraction III cells, are cultured in F-12 medium (BRL) with 5% Fetal bovine serum and 0.4 mg/ml G418. TRAB-11 cells are also immortalized by SV40 large T antigen from adult rat tibia and are cultured in RPMI 1640 medium with 10% FBS and 0.4 mg/ml G418. ROS 17/2.8 rat osteosarcoma cells are cultured in F-12 containing 5% FBS. Osteoblast-enriched (fraction III) primary fetal rat calvaria cells are obtained by collagenase/hyaluronidase digestion of calvariae of 19 day-old rat fetuses. See Rodan et al., Growth stimulation of rat calvaria osteoblastic cells by acidic FGF, Endocrinology, 121, 1919-1923 (1987), which is incorporated by reference herein in its entirety. Cells are released during 30-50 minutes digestion (fraction III) and are cultured in F-12 medium containing 5% FBS. […]

RCT-3 cells = assay: Intracellular cAMP in RCT-3 cells; format: cell-based, rat
Method: as §1

TRAB-11 cells = assay: Intracellular cAMP in TRAB-11 cells; format: cell-based, rat
Method: as §1

[2] = test system: EP4 mRNA in RP-1 periosteal cells; assay: EP4 mRNA in RP-1 periosteal cells (Northern blot); format: cell-based, rat; settings: 10^-6 M
Method: (§2) RP-1 periosteal cells are spontaneously immortalized from primary cultures of periosteal cells from tibae of 4-week old Sprague-Dawley rats and are cultured in DMEM (BRL, Gaithersburg, Md.) with 10% fetal bovine serum (JRH Biosciences, Lenexa, Kans.). […] Total RNA is extracted from the tibial metaphysis or diaphysis and calvaria using a guanidinium isothiocyanate-phenol-chloroform method after pulverizing frozen bone samples by a tissue homogenizer. See P. Chomczynski et al., Single-step method of RNA isolation by acid guanidium thiocyanate-phenol-chloroform extraction., Analyt Biochem, 162, 156-159 (1987), which is incorporated by reference herein in its entirety. RNA samples ([…]) are separated on 0.9% agarose/formaldehyde gels and transferred onto nylon membranes (Boehringer Mannheim, Germany). Membranes are prehybridized in Hybrisol I (Oncor, Gaithersburg, Md.) and 0.5 mg/ml sonicated salmon sperm DNA (Boehringer) at 42° C. for 3 hours and are hybridized at 42° C. with rat EP2 and mouse EP4 cDNA probes labeled with [^32P]-dCTP (Amersham, Buckinghamshire, UK) by random priming using the rediprime kit (Amersham). After hybridization, membranes are washed 4 times in 2×SSC+0.1% SDS at room temperature for a total of 1 hour and once with 0.2×SSC+0.1% SDS at 55° C. for 1 hour and then exposed to Kodak XAR 2 film at −70° C. using intensifying screens. […]

EP4 mRNA in RCT-3 cells = EP4 mRNA in RCT-3 cells (Northern blot); format: cell-based, rat
Method: RCT-1 and RCT-3 are clonal cell lines immortalized by SV-40 large T antigen from cells released from fetal rat calvair by a cmbination collagenase/hyaluronidase digestion. RCT-1 cells, derived from cells released during the first 10 minutes of digestion (fraction I), are cultured in RPMI 1640 medium (BRL) with 10% fetal bovine serum and 0.4 mg/ml G418 (BRL). […] RCT-3 cells, immortalized from osteoblast-enriched fraction III cells, are cultured in F-12 medium (BRL) with 5% Fetal bovine serum and 0.4 mg/ml G418. TRAB-11 cells are also immortalized by SV40 large T antigen from adult rat tibia and are cultured in RPMI 1640 medium with 10% FBS and 0.4 mg/ml G418. ROS 17/2.8 rat osteosarcoma cells are cultured in F-12 containing 5% FBS. Osteoblast-enriched (fraction III) primary fetal rat calvaria cells are obtained by collagenase/hyaluronidase digestion of calvariae of 19 day-old rat fetuses. See Rodan et al., Growth stimulation of rat calvaria osteoblastic cells by acidic FGF, Endocrinology, 121, 1919-1923 (1987), which is incorporated by reference herein in its entirety. Cells are released during 30-50 minutes digestion (fraction III) and are cultured in F-12 medium containing 5% FBS. Total RNA is extracted from the tibial metaphysis or diaphysis and calvaria using a guanidinium isothiocyanate-phenol-chloroform method after pulverizing frozen bone samples by a tissue homogenizer. […]

EP2 mRNA in RP-1 cells = EP2 mRNA in RP-1 cells (Northern blot); format: cell-based, rat
Method: as §2

[3] = test system: EP4 mRNA in tibiae and calvariae; assay: EP4 mRNA in rat bone tissue after systemic administration (Northern blot); format: in vivo
Method: For mRNA localization experiments, 5-week old Sprague-Dawley rats (Charles River) are euthanized by CO2, their tibiae and calvariae are excised, cleaned of soft tissues and frozen immediately in liquid nitrogen. For EP4 regulation experiments, 6-week old rats are given a single injection of either vehicle (7% ethanol in sterile water) or an anabolic dose of PGE2 (Cayman Chemical, Ann Arbor, Mich.), 3-6 mg/kg in the same vehicle) intraperitoneally. Animals are euthanized at several time points post-injection and their tibiae and calvariae, as well as samples from lung and kidney tissues are frozen in liquid nitrogen. Total RNA is extracted from the tibial metaphysis or diaphysis and calvaria using a guanidinium isothiocyanate-phenol-chloroform method after pulverizing frozen bone samples by a tissue homogenizer. See P. Chomczynski et al., Single-step method of RNA isolation by acid guanidium thiocyanate-phenol-chloroform extraction., Analyt Biochem, 162, 156-159 (1987), which is incorporated by reference herein in its entirety. RNA samples ([…]) are separated on 0.9% agarose/formaldehyde gels and transferred onto nylon membranes (Boehringer Mannheim, Germany). Membranes are prehybridized in Hybrisol I (Oncor, Gaithersburg, Md.) and 0.5 mg/ml sonicated salmon sperm DNA (Boehringer) at 42° C. for 3 hours and are hybridized at 42° C. with rat EP2 and mouse EP4 cDNA probes labeled with [^32P]-dCTP (Amersham, Buckinghamshire, UK) by random priming using the rediprime kit (Amersham). After hybridization, membranes are washed 4 times in 2×SSC+0.1% SDS at room temperature for a total of 1 hour and once with 0.2×SSC+0.1% SDS at 55° C. for 1 hour and then exposed to Kodak XAR 2 film at −70° C. using intensifying screens. After developing the films, bound probes are removed twice with 0.1% SDS at 80° C. and membranes are hybridized with a human GAPDH (Glyceraldehyde 3-Phosphate Dehydrogenase) cDNA probe (purchased from Clontech, Palo Alto, Calif.) for loading control. To examine if PGE2 regulates EP4 mRNA levels in vivo in bone tissue, […] male rats are injected with PGE2 (3-6 mg/Kg).

EP2 mRNA in bone tissue = assay: EP2 mRNA in rat bone tissue after systemic administration (Northern blot); format: in vivo; settings: rats, 3-6 mg/Kg
Method: For mRNA localization experiments, 5-week old Sprague-Dawley rats (Charles River) are euthanized by CO2, their tibiae and calvariae are excised, cleaned of soft tissues and frozen immediately in liquid nitrogen. For EP4 regulation experiments, 6-week old rats are given a single injection of either vehicle (7% ethanol in sterile water) or an anabolic dose of PGE2 (Cayman Chemical, Ann Arbor, Mich.), 3-6 mg/kg in the same vehicle) intraperitoneally. Animals are euthanized at several time points post-injection and their tibiae and calvariae, as well as samples from lung and kidney tissues are frozen in liquid nitrogen. Total RNA is extracted from the tibial metaphysis or diaphysis and calvaria using a guanidinium isothiocyanate-phenol-chloroform method after pulverizing frozen bone samples by a tissue homogenizer. See P. Chomczynski et al., Single-step method of RNA isolation by acid guanidium thiocyanate-phenol-chloroform extraction., Analyt Biochem, 162, 156-159 (1987), which is incorporated by reference herein in its entirety. RNA samples ([…]) are separated on 0.9% agarose/formaldehyde gels and transferred onto nylon membranes (Boehringer Mannheim, Germany). […]

[4] = test system: EP4 expression in bone marrow cells; assay: In situ hybridization of EP4 in rat tibia; format: in vivo; settings: rats, single anabolic dose, tibial metaphysis
Method: For mRNA localization experiments, 5-week old Sprague-Dawley rats (Charles River) are euthanized by CO2, their tibiae and calvariae are excised, cleaned of soft tissues and frozen immediately in liquid nitrogen. For EP4 regulation experiments, 6-week old rats are given a single injection of either vehicle (7% ethanol in sterile water) or an anabolic dose of PGE2 (Cayman Chemical, Ann Arbor, Mich.), 3-6 mg/kg in the same vehicle) intraperitoneally. Animals are euthanized at several time points post-injection and their tibiae and calvariae, as well as samples from lung and kidney tissues are frozen in liquid nitrogen.
Frozen tibiae are sectioned coronally at […] thickness and sections are mounted on charged slides (Probe On Plus, Fisher Scientific, Springfield, N.J.) and are kept at −70° C. until hybridization. cRNA probes are labeled with ^35S-UTPgS (ICN, Costa Mesa, Calif.) using a Riboprobe II kit (Promega Madison, Wis.). Hybridization is performed overnight at 50° C. […]
In situ hybridization is used in order to localize cells expressing EP4 in bone In control experiment (vehicle-injected) rats, low expression of EP4 is detected in bone marrow cells. […]

**Q.** CCCCC[C@H](O)/C=C/[C@H]1[C@H](O)CC(=O)[C@@H]1C/C=C\CCCC(=O)O [PGE2, prostaglandin E2] was tested. Which “effect on intracellular cAMP” value [1] did it give?
**A.** Its value is “no effect”.

**Q.** And the “effect on intracellular cAMP” value (RCT-3 cells)?
**A.** The value was “markedly induced”.

**Q.** What about the “effect on intracellular cAMP” value (TRAB-11 cells) of the same molecule?
**A.** Its value is “markedly induced”.

**Q.** What about the “effect on EP4 mRNA levels” value [2] of the same molecule?
**A.** The value was “rapidly increases”.

**Q.** What about the “time of peak of EP4 mRNA levels after treatment” value [2] of the same molecule?
**A.** Its value is 2 h.

**Q.** And the “effect on EP4 mRNA levels” value (EP4 mRNA in RCT-3 cells)?
**A.** The value was “no effect”.

**Q.** And the “induction of EP2 mRNA” value (EP2 mRNA in RP-1 cells)?
**A.** The value was “does not induce”.

**Q.** And the “effect on EP4 mRNA levels in the tibial diaphysis” value ([3]; rats, 3-6 mg/Kg)?
**A.** The value was “rapidly increased”.

**Q.** What about the “time of peak of EP4 mRNA levels in the tibial diaphysis after injection” value ([3]; rats, 3-6 mg/Kg) of the same molecule?
**A.** Its value is 2 h.

**Q.** And the “effect on expression of EP4 in tibiae and calvariae” value ([3]; young adult rats, 3-6 mg/kg)?
**A.** Its value is “upregulates”.

**Q.** What about the “time of peak of EP4 expression in tibiae and calvariae” value ([3]; young adult rats, 3-6 mg/kg) of the same molecule?
**A.** Its value is 1 to 2 h.

**Q.** What about the “induction of EP2 mRNA in bone tissue” value (EP2 mRNA in bone tissue) of the same molecule?
**A.** The value was “does not induce”.

**Q.** And the “expression of EP4 in bone marrow cells (in situ hybridization)” value [4]?
**A.** Its value is “increasesd the expression”.
